Results on five compounds are retold here after patent US7238469B2, “Carbon monoxide improves outcomes in tissue and organ transplants and suppresses apoptosis” (priority 2001, dated 2007).

Molecules are shown by their SMILES. Entries after “also recorded” stand apart in the source; their conditions may differ.

One data set concerns 2F–2B ECs. It is filed as cell-based, murine. Here is the method:
The murine 2F–2B endothelial cell line (ATCC) was transiently transfected as described elsewhere (Soares et al., Nature Med. 4:1073, 1998; Brouard et al, J. Exp. Med. 192:1015, 2000). All experiments were conducted 24–48 h after transfection. é-galactosidase-transfected cells were detected as described elsewhere (Soares et al., Nature Med. 4:1073, 1998; Brouard et al., J. Exp. Med. 192:1015, 2000). Percentage of viable cells was assessed by evaluating the number of é-galactosidase-expressing cells that retained normal morphology as described elsewhere (Soares et al., Nature Med. 4:1073, 1998; Brouard et al., J. Exp. Med. 192:1015, 2000). The number of random fields counted was determined to have a minimum of 200 viable transfected cells per control well. The percentage of viable cells was normalized for each DNA preparation to the number of transfected cells counted in the absence of the apoptosis-inducing agent (100% viability). All experiments were performed at least three times in duplicate. Actinomycin D (Act. D; Sigma) was dissolved in PBS and added to the culture medium (10 îg/ml) 24 h after transfection. SnPPIX (Porphyrin Products) was dissolved (10 îM) in 100 mM NaOH and conserved at −20° C. until used. SNPPIX was added to the culture medium (50 îM) 6 h after transfection. Human recombinant TNF-α (R&D Systems, Minneapolis, Minn.) was dissolved in PBS, 1% BSA, and added to the culture medium (10–100 ng/ml) 24 h after transfection.
Cells were exposed to compressed air or varying concentration of CO (250 and 10,000 ppm), as described elsewhere (Otterbein et al., Nature Med. 6:422, 2000; and Brouard et al., J. Exp. Med. 192:1015, 2000).
BAECs and 2F–2B ECs were transiently transfected. All experiments were carried out 24–48 h after transfection. The percentage of viable cells was assessed by evaluating the number of β-galactosidase-expressing cells that retained normal morphology. The number of random fields counted was determined to have a minimum of 200 viable transfected cells per control well. The percentage of viable cells was normalized for each DNA preparation to the number of transfected cells counted in the absence of the apoptosis-inducing agent (100% viability). All experiments were performed at least three times in duplicate.
Actinomycin D (Act.D; Sigma-Aldrich) was dissolved in PBS and added to the culture medium 24 h after transfection. The Act.D concentration used corresponded to the optimal concentration necessary to sensitize ECs to TNF-α mediated apoptosis, e.g., 10 μg/ml for 2F–2B ECs and 0.1 μg/ml for BAECs. When indicated, EC apoptosis was induced by etoposide (200 μM, 8 h; Calbiochem-Novabiochem) or by serum deprivation (0.1% FCS for 24 h). The iron chelator deferoxamine mesylate (DFO; Sigma-Aldrich) was dissolved in water and added to culture medium (1–100 μM) 1 h before the induction of apoptosis. Hemoglobin (Hb; Sigma-Aldrich) was dissolved (1 mM) in PBS, 10 mM Na2S2O4, dialyzed against PBS (2 h, 4° C., 1:800 dilution), and added to the culture medium (1–100 μM) 6 h after transfection. The guanylcyclase inhibitor 1H(1,2,4)oxadiazolo(4,3)quinoxalin-1 (ODQ; Calbiochem-Novabiochem) was dissolved in DMSO (Sigma-Aldrich) and added to the culture medium (10–100 μM) 6 h after transfection. Iron protoporphyrin ([FePP]/heme), cobalt protoporphyrin (CoPPIX), and tin protoporphyrin (SnPPIX; all from Porphyrin Products, Inc.) were dissolved (10 mM) in 100 mM NaOH and held at −20° C. until use. Metalloporphyrins were added to the culture medium (50 μM) 6 h after transfection. The cGMP analogue 8-bromo-cGMP sodium salt (8-Br-cGMP; Sigma-Aldrich) was dissolved in water and added to the culture medium (10–100 µM) 30 min before the induction of apoptosis. Human recombinant TNF- (R&D Systems) was dissolved in PBS and 1% BSA, and added to the culture medium (10–100 ng/ml) 24 h after transfection.
Cells were exposed to compressed air from a compressed air tank or varying concentrations of CO (250 and 10,000 ppm).

The test system of data set [1] is mouse hearts transplanted into rats. Put plainly: Immunohistology of cardiac grafts (thrombosis, apoptosis). The format is in vivo, BALB/c mouse hearts, Lewis rats. The note with it: for vascular thrombosis in graft: 3 days after transplantation. As for the experimental part:
Grafts were harvested 3 days after transplantation, snap-frozen in liquid nitrogen, and stored at −80° C. Cryostat sections were fixed and stained as described previously (Soares et al, Nature Med. 4:1073, 1998). Rat leukocyte populations were analyzed by using anti-rat leukocyte common Ag (LCA, CD45; OX-1), Éé TCR (TCRÉé-chains; R73), B cell (CD45RB; OX-33), NK cell (NKR-P1; 3.2.3), and MΦ (CD68; ED-1), mAbs (Serotec, Harlan Bioproducts for Science, Indianapolis, Ind.). Detection of fibrin/fibrinogen was conducted by using a rabbit anti-human fibrin/fibrinogen polyclonal Ab (Dako, Carpinteria, Calif.). Intragraft complement activation was detected by using an anti-rat Clq (The Binding Site, Birmigham, U. K.), C3 (ED11; Serotec), or C5b-9 mAb (Dako). Rat IgM was detected by using the mouse anti-rat IgM mAb MARM-4 (a kind gift of Dr. H. Bazin, University of Louvain, Brussels, Belgium). Isotype-matched mAbs or purified Ig, as well as a control for residual endogenous peroxidase activity, were included in each experiment. Detection of apoptosis was carried out by using ApopTagO in situ apoptosis detection kit (Oncor, Gaithersburg, Md.) according to the manufacturer's instructions.
Mouse hearts were transplanted into CVF plus CsA-treated rats. SnPPIX or FePPIX was administered and graft recipients were exposed to CO (250–400 ppm). Grafts were harvested 3 days after transplantation (n=3 per group) and stained for rat IgM, rat and mouse complement C1q, rat and mouse P-selectin, rat and mouse fibrin/fibrinogen, and rat CD45 expressing leukocytes. […] HO-2, HO-1, and ferritin were detected in graft endothelial and smooth muscle cells as well as in cardiac myocytes (data not shown). There was only minimal vascular thrombosis or infiltration by host leukocytes usually associated with focal areas of infarction (data not shown). There was low but detectable P-selectin expression on the vascular endothelium (data not shown). […] Thrombi were consistently observed in large coronary vessels at the base of the heart. There were no detectable P-selectin-expressing platelet aggregates in the microvasculature (data not shown). There was extensive graft infiltration by host neutrophils as well as by CD45^++ leukocytes expressing the monocyte/MΦ marker CD68/ED-1 and MHC class II Ags (data not shown). Infiltrating monocyte/MΦ were found near arterioles and scattered throughout the myocardium, associated with areas of infarction.

Setting [2] is: rats treated with SnPPIX or FePPIX.

As for `Nc1nc2c(nc(Br)n2[C@@H]2O[C@@H]3COP(=O)(O)O[C@H]3[C@H]2O)c(=O)[nH]1` [8-Br-cGMP, 8-bromoguanosine-3′-5′-cyclic-monophosphate], in the data set with 2F–2B ECs (8-Br-cGMP), the “effect on EC apoptosis” value was “failed to suppress EC apoptosis”.

On to `[C-]#[O+]` [CO, carbon monoxide], for which, in data set [1] (SnPPIX-treated rats exposed to CO 250–400 ppm), the “vascular thrombosis in graft” value was “no signs of vascular thrombosis”. Besides, the “apoptosis in transplanted mouse hearts” value in data set [1] (rats treated with SnPPIX and exposed to CO) was “Apoptosis did not occur”. Also, the “effect on EC apoptosis under inhibition of HO activity by SnPPIX” value in the data set with 2F–2B ECs (CO 250 ppm) is “did not suppress EC apoptosis significantly”. Besides, in the data set with 2F–2B ECs (exogenous CO 10,000 ppm), the “effect on TNF-α mediated apoptosis of control ECs (pcDNA3)” value was “TNF-α mediated apoptosis was suppressed”.

With `C=CC1=C(C)c2cc3[n-]c(cc4[n-]c(cc5nc(cc1n2)C(C)=C5C=C)c(C)c4CCC(=O)O)c(CCC(=O)O)c3C.[Fe+2]` [FePPIX, iron protoporphyrin], in data set [1] (setting [2]), the “apoptosis in transplanted mouse hearts” value is “Apoptosis did not occur”. For the same compound, in the data set with 2F–2B ECs (2F–2B ECs), the “concentrations at which heme becomes cytotoxic” value is listed as “higher than 10 μM” and the “heme concentrations at which the protective effect from TNF-α plus Act.D-mediated apoptosis was observed” value is 5 to 7 µM. The “effect on EC apoptosis when CO was scavenged by Hb” value in the data set with 2F–2B ECs (FePP 6.25 μM, Hb 50 μM) is on record as “no longer able to suppress EC apoptosis”.

With `O=c1onc2cnc3ccccc3n12` [ODQ, 1H[1,2,4]oxadiazolo[4,3-α]quinoxalin-1], the “effect on the antiapoptotic effects of HO-1” value in the data set on 2F–2B ECs (ODQ 10–100 μM) is on record as “did not suppress the antiapoptotic effects of HO-1”.

In the case of `C=Cc1c2[n-]c(c1C)/C=c1\[n-]/c(c(C)c1C=C)=C\c1[n-]c(c(CCC(=O)O)c1C)C=c1[n-]/c(c(C)c1CCC(=O)O)=C\2.[Sn+4]` [SnPPIX, tin protoporphyrin IX], the “vascular thrombosis in graft” value in data set [1] (CVF plus CsA-treated rats, SnPPIX) was “widespread vascular thrombosis of large coronary vessels”. In data set [1] (setting [2]), the “apoptosis in transplanted mouse hearts” value is “widespread apoptosis of endothelial cells and cardiac myocytes”. Moreover, in the data set on 2F–2B ECs (HO-1 transfected ECs, protoporphyrin 50 μM), the “effect of protoporphyrin on the antiapoptotic effect of HO-1” value is recorded as “blocked the antiapoptotic effect of HO-1; also recorded: HO-1 was no longer able to prevent EC apoptosis”.
